In brackets after ≈: the same amount, converted by molar mass.
What was measured:
[1] = target: Human ACC2 (Homo sapiens, UniProt O00763); experiment: In vitro ACC2 inhibition assay (ADP-Glo), human ACC2; format: biochemical; conditions: 5 nM ACC2, 20 μM ATP, 20 μM acetyl-CoA
[2] = system: C. albicans ATCC 90028; experiment: Anti-Fungal Activity Assay (broth microtiter MIC), C. albicans; format: cell-based, Candida albicans; conditions: 3 replicates, MIC recorded at 48 h; for MIC: Candida albicans, ATCC90028, 48 h, read-out: MIC C. albicans ATCC 90028
Summary of the method: (§1)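 Candida strains were grown from frozen stock on Sabouraud dextrose agar overnight at 35° C, then suspended directly in RPMI 1640+MOPS and quantified against standard curves. Broth microdilution MIC plates followed CLSI M27-A3; MICs were read visually against growth control at 48 h, with a 24 h read added for soraphen.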

[3] = system: C. krusei ATCC 6258; experiment: Anti-Fungal Activity Assay (broth microtiter MIC), C. krusei; format: cell-based, Candida krusei; conditions: 3 replicates, MIC recorded at 48 h; for MIC: Pichia kudriavzevii, ATCC6258, 48 h, read-out: MIC C. krusei ATCC 6258
Summary of the method: as §1

[4] = system: C. parapsilosis ATCC 22019; experiment: Anti-Fungal Activity Assay (broth microtiter MIC), C. parapsilosis; format: cell-based, Candida parapsilosis; conditions: 3 replicates, MIC recorded at 48 h; for MIC: Lodderomyces parapsilosis, ATCC22019, 48 h, read-out: MIC C. parapsilosis ATCC 22019
Summary of the method: as §1

[5] = target: Fungal ACC2 (UniProt Q00955); conditions: read-out: Fungal ACC2 (IC50, in vitro ACC2 inhibition)
Fungal ACC2, sequence (Q00955 whole entry): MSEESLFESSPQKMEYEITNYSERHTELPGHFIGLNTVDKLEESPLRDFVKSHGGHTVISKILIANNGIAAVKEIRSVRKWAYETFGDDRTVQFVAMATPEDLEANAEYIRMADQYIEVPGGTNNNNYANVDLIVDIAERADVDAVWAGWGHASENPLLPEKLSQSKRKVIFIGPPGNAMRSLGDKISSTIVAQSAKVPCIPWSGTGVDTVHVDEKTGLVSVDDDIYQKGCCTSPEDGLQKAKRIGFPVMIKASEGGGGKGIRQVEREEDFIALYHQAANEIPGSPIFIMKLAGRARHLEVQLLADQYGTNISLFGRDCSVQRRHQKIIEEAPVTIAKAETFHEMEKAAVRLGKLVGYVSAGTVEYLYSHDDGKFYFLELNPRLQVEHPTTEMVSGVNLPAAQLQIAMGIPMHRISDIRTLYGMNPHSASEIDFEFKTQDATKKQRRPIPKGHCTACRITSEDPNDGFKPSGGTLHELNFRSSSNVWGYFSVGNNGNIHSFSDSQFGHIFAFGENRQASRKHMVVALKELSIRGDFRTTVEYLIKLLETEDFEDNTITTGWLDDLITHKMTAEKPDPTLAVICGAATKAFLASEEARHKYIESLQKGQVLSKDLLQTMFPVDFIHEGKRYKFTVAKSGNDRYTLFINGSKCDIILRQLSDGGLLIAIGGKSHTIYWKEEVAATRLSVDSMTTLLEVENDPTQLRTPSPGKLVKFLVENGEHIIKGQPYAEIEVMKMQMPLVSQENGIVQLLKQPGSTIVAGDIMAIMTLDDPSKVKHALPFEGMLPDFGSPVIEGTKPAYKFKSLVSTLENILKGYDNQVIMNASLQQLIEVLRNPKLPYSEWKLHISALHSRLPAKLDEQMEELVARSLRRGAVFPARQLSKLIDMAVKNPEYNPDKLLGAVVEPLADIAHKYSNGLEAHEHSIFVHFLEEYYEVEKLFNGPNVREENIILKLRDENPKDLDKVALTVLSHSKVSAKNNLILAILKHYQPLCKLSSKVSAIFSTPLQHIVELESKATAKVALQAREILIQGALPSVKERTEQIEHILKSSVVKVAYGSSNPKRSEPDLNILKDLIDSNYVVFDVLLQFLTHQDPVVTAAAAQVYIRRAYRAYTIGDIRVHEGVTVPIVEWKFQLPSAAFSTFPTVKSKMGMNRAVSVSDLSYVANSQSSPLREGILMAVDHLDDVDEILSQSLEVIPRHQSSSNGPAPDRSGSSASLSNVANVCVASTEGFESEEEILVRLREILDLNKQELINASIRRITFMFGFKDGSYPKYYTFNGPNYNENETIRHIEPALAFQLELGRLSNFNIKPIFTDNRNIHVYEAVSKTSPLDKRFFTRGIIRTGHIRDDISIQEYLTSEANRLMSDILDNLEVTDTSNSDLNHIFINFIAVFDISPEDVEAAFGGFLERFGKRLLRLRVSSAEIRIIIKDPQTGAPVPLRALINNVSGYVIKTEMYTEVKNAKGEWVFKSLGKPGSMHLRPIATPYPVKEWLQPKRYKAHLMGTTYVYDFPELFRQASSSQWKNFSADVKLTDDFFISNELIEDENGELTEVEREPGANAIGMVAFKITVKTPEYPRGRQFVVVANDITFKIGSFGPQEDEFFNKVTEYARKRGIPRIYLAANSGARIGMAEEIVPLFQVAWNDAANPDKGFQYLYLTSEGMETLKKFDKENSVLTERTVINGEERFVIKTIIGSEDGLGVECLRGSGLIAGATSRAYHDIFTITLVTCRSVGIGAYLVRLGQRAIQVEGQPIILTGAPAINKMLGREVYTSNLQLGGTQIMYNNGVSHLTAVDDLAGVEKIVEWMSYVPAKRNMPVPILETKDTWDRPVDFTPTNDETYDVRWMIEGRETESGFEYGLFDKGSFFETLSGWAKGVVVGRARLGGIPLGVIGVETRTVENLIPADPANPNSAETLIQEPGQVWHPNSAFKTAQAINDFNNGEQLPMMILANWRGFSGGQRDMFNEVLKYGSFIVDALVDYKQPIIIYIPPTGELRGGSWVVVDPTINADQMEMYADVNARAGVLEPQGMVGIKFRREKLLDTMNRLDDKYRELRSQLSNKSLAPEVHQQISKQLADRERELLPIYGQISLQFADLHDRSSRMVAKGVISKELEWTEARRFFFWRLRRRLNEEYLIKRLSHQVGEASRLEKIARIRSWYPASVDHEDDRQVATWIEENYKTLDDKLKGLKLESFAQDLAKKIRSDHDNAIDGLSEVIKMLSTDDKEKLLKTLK

Human ACC2, sequence (O00763 whole entry): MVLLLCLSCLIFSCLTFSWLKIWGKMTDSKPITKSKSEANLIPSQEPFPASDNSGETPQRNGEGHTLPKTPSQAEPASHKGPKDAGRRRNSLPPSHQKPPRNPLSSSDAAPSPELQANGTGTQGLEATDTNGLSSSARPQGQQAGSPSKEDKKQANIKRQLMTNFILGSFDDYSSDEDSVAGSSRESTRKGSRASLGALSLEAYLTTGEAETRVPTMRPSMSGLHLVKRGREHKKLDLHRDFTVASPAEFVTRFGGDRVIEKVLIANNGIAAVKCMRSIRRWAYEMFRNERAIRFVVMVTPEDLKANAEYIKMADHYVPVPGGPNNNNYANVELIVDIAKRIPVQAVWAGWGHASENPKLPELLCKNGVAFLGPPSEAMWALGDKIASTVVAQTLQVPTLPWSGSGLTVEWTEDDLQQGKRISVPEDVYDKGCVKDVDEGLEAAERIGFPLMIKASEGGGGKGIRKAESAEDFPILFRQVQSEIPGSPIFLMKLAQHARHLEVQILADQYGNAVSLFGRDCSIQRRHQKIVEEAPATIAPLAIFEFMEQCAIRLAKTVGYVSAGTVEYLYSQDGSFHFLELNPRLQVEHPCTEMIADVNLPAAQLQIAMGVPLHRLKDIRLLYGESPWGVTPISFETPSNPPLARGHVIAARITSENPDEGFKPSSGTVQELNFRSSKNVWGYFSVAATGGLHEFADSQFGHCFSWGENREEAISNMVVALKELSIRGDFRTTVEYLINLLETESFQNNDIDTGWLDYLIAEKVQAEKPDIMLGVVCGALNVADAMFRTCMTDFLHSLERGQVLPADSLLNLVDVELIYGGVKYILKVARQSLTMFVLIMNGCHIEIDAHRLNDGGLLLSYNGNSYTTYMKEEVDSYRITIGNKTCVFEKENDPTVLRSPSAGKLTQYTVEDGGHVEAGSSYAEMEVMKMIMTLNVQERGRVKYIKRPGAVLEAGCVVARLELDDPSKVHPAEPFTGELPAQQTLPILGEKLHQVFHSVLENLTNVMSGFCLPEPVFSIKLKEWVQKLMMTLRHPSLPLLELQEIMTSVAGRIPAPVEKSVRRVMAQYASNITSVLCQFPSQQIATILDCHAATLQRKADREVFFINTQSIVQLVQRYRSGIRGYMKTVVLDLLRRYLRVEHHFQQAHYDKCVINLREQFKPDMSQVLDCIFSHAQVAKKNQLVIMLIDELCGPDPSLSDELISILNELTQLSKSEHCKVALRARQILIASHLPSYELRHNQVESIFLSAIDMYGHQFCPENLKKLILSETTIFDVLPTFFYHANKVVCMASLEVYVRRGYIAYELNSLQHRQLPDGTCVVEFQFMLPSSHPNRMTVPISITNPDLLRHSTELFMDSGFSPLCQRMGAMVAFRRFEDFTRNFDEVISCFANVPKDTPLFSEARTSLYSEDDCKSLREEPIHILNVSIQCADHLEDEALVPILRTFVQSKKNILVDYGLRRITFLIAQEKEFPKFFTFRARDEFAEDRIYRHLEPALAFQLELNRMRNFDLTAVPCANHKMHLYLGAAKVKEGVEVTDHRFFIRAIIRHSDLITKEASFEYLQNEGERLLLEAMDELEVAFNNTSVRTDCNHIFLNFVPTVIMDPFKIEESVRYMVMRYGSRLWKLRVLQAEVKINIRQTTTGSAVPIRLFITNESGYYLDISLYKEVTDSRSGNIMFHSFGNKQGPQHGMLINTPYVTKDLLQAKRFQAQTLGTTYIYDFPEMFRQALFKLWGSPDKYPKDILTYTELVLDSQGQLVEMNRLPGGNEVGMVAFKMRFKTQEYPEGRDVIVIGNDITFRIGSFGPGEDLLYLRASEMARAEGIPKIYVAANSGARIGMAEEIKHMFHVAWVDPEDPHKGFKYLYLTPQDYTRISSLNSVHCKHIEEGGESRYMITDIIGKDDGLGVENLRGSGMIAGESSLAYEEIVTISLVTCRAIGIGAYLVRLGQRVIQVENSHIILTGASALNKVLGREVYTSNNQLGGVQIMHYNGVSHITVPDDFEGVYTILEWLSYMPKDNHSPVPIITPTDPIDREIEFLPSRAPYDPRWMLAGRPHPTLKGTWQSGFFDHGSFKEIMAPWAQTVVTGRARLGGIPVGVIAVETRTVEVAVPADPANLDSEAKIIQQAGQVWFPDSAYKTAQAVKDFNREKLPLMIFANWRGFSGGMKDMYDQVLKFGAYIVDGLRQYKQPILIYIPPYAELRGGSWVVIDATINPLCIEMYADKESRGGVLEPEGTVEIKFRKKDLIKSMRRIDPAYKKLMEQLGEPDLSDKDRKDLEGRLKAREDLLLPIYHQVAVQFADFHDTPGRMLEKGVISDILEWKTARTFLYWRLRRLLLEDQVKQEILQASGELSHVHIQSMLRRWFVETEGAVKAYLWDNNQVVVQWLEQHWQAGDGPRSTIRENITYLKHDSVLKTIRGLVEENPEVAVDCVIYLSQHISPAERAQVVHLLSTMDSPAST

Compound | IC50 [1] [nM] | MIC C. albicans ATCC 90028 [2] | MIC C. krusei ATCC 6258 [3] | MIC C. parapsilosis ATCC 22019 [4] | IC50 [5] [nM] | MIC [2] [µg/mL] | MIC [3] [µg/mL] | MIC [4] [µg/mL]
COc1ccc(F)cc1[C@H](COc1nc2sc(-n3nccn3)c(C)c2c(=O)n1C1CC(=O)N(C)C1)OCCO (stereo in doubt) [Compound I-113, 2-((R)-2-(5-fluoro-2-methoxyphenyl)-2-(2-hydroxy-ethoxy)ethoxy)-5-methyl-3-((S)-1-methyl-5-oxopyrrolidin-3-yl)-6-(2H-1,2,3-triazol-2-yl)thieno[2,3-d]pyrimidin-4(3H)-one] | > 1000 | C (provided an MIC of 2.1-4.0 μg/mL) | C (provided an MIC of 2.1-4.0 μg/mL) | C (provided an MIC of 2.1-4.0 μg/mL) | 10 to 100 |  |  | 
COc1ccc(F)cc1C(=O)Cn1c(=O)n(C2CCN(C)C2=O)c(=O)c2c(C)c(-n3nccn3)sc21 (stereo in doubt) [Compound I-162, (R)-1-(2-(5-fluoro-2-methoxyphenyl)-2-oxoethyl)-5-methyl-3-(1-methyl-2-oxopyrrolidin-3-yl)-6-(2H-1,2,3-triazol-2-yl)thieno[2,3-d]pyrimidine-2,4(1H,3H)-dione] | 100 to 1000 | C (provided an MIC of 2.1-4.0 μg/mL) | C (provided an MIC of 2.1-4.0 μg/mL) | C (provided an MIC of 2.1-4.0 μg/mL) | 10 to 100 |  |  | 
COCCO[C@@H](Cn1c(=O)n(C2CCNC2=O)c(=O)c2c(C)c(-n3nccn3)sc21)c1cc(F)ccc1OC (stereo partly drawn) [Compound I-1, 1-((R)-2-(5-fluoro-2-methoxyphenyl)-2-(2-methoxyethoxy)ethyl)-5-methyl-3-(2-oxopyrrolidin-3-yl)-6-(2H-1,2,3-triazol-2-yl)thieno[2,3-d]pyrimidine-2,4(1H,3H)-dione] | 2 to 10 |  |  |  | 0.7 to 2 | 2.1 to 4 (≈ 3.76 to 7.16 µM) | 2.1 to 4 (≈ 3.76 to 7.16 µM) | 2.1 to 4 (≈ 3.76 to 7.16 µM)
COCCO[C@@H](Cn1c(=O)n(C2CCN(C)C2=O)c(=O)c2c(C)c(-n3nccn3)sc21)c1cc(F)ccc1OC (stereo partly drawn) [Compound I-2, 1-((R)-2-(5-fluoro-2-methoxyphenyl)-2-(2-methoxy-ethoxy)ethyl)-5-methyl-3-(1-methyl-2-oxopyrrolidin-3-yl)-6-(2H-1,2,3-triazol-2-yl)thieno[2,3-d]pyrimidine-2,4(1H,3H)-dione] | 10 to 100 |  |  |  | 2 to 10 | 2.1 to 4 (≈ 3.67 to 6.99 µM) | 2.1 to 4 (≈ 3.67 to 6.99 µM) | 2.1 to 4 (≈ 3.67 to 6.99 µM)
COCCO[C@@H](Cn1c(=O)n(C2CCN(C(C)C)C2=O)c(=O)c2c(C)c(-n3nccn3)sc21)c1cc(F)ccc1OC (stereo partly drawn) [Compound I-4, 1-((R)-2-(5-fluoro-2-methoxyphenyl)-2-(2-methoxy-ethoxy)ethyl)-3-(1-isopropyl-2-oxopyrrolidin-3-yl)-5-methyl-6-(2H-1,2,3-triazol-2-yl)thieno[2,3-d]pyrimidine-2,4(1H,3H)-dione] | 10 to 100 |  |  |  | 2 to 10 | 2.1 to 4 (≈ 3.5 to 6.66 µM) | 2.1 to 4 (≈ 3.5 to 6.66 µM) | 2.1 to 4 (≈ 3.5 to 6.66 µM)
COc1ccc(F)cc1[C@H](Cn1c(=O)n(C2CCNC2=O)c(=O)c2c(C)c(-n3nccn3)sc21)OCCO (stereo partly drawn) [Compound I-5, 1-((R)-2-(5-fluoro-2-methoxyphenyl)-2-(2-hydroxyethoxy)ethyl)-5-methyl-3-(2-oxopyrrolidin-3-yl)-6-(2H-1,2,3-triazol-2-yl)thieno[2,3-d]pyrimidine-2,4(1H,3H)-dione] | 2 to 10 |  |  |  | 0.7 to 2 | 2.1 to 4 (≈ 3.86 to 7.35 µM) | 2.1 to 4 (≈ 3.86 to 7.35 µM) | 2.1 to 4 (≈ 3.86 to 7.35 µM)
COCCO[C@@H](Cn1c(=O)n(C2CCCNC2=O)c(=O)c2c(C)c(-n3nccn3)sc21)c1cc(F)ccc1OC (stereo partly drawn) [Compound I-13, 1-((R)-2-(5-fluoro-2-methoxyphenyl)-2-(2-methoxy-ethoxy)ethyl)-5-methyl-3-(2-oxopiperidin-3-yl)-6-(2H-1,2,3-triazol-2-yl)thieno[2,3-d]pyrimidine-2,4(1H,3H)-dione] | 10 to 100 |  |  |  | 0.7 to 2 | 2.1 to 4 (≈ 3.67 to 6.99 µM) | 2.1 to 4 (≈ 3.67 to 6.99 µM) | 2.1 to 4 (≈ 3.67 to 6.99 µM)

From patent US20190330224A1, “ACC INHIBITORS AND USES THEREOF” (Gilead Apollo, LLC, priority 2015, published 2019)
